Measurements reported in patent US20060013858A1, “Fludrocortisone treatment for hearing loss” (priority 2002, published 2006).
Values joined by “and” are separate entries in the source; they are usually repeats but may differ in a detail not shown here. Equal entries are not always repeated. Where two headings read alike, the source gives them in different places.

How the values were obtained:
[1] = system: MRL/MpJ-Fas^lPr autoimmune mice; test: Anti-nuclear antibody (ANA) levels by immunofluorescence; assay type: in vivo, mouse; conditions: pre- vs posttreatment
Description: (§1) This example describes methods used to measure the severity of systemic autoimmune disease, as described in Trune et al. (Hear. Res. 38:57-66, 1989). Briefly, baseline and posttreatment serum samples are taken for measurement of hematocrit, antinuclear antibodies, and serum immune complexes as indices of systemic autoimmune disease progression. […] For those mice still alive at the time of sacrifice, some spleens were weighed to assess splenomegaly, another index of systemic autoimmune disease progression.
Antibodies against nuclear material are another manifestation of autoimmune disease. Anti-nuclear antibody (ANA) levels are determined by level of immunofluorescence (1+ to 4+) with normal as 1+as previously described (Trune et al., Hear. Res. 38:57-66, 1989).

[2] = system: MRL/MpJ-Fas^lPr autoimmune mice; test: Spleen weight (splenomegaly); assay type: in vivo, mouse; conditions: at sacrifice; prednisolone 5 mg treatment; aldosterone dose not stated
Description: as §1
Increased spleen size also is a manifestation of autoimmune disease, increasing with progression of systemic T and B cell proliferation. The spleen is approximately 75-100 mg in normal mice.

[3] = system: MRL/MpJ-Fas^lPr autoimmune mice; test: Drug combination therapy: ABR ear outcome; assay type: in vivo, mouse
Procedure: (§2) Animals were anesthetized (kcetamine+xylazine) and the individual ears of each mouse stimulated with a closed-tube sound delivery system sealed into the ear canal. The ABR to tone-burst stimuli at 4, 8, 16, and 32 kHz was recorded and thresholds obtained for each ear. Absolute thresholds and threshold changes over the treatment period for each ear were calculated to determine if treatments impact cochlear function. For each ear, pretreatment and posttreatment thresholds at the four frequencies were compared statistically to establish any change over the treatment period.
(§3) The shifts for each frequency within an ear were added to derive its total change in threshold as described previously (Trune et al., Hear. Res. 137:160-6, 1999; Trune et al., Hear. Res. 137:167-73, 1999). If the ear's combined posttreatment thresholds was lower by 20 dB or more, the ear was considered to be improved (average of 5 dB per frequency). The ear is considered unchanged if the combined thresholds are +/−15 dB and worse if the combined thresholds were higher by 20 dB or more.
Hearing loss was monitored monthly using the method described in Example 2.

[4] = system: MRL/MpJ-Fas^lPr autoimmune mice; test: Drug combination therapy: survival; assay type: in vivo, mouse; conditions: for % alive: 2 months
[5] = system: MRL/MpJ-Fas^lPr autoimmune mice; test: Cochlear histology of the stria vascularis; assay type: in vivo, mouse; conditions: for stria vascularis appearance: after steroid treatment, qualitative
Procedure: Following decalcification in EDTA, the ears were cryostat sectioned for qualitative morphologic evaluations of the stria vascularis. The procedure of Whitlon et al. (Brain Res. Protocols, 6:159-66, 2001) can be used to improve OCT compound infiltration and tissue preservation. The cochleas were cryostat sectioned for immunocytochemical analyses. Quantitative morphology was performed on glycol methacrylate (GMA) embedded tissue as follows. […] Following decalcification in EDTA, the ears were embedded in glycol methacrylate for light microscopic examination. Every fourth section (5 μm thickness) wass serially mounted on glass slides and stained for quantitative and qualitative analyses. Cochleas were scanned for pathological changes and treatment effects. Of particular interest is the stria vascularis, lateral wall, hair cells, spiral ganglion neurons, and all blood vessels in modiolar and sensory regions. The area occupied by stria vascularis, blood vessels, non-blood vessels, and intercellular edema was measured for statistical analysis. Alternatively, the following methods can be used to qualitatively determine stria vascularis and spiral ligament and integrity of endothelial cell tight junctions, intercellular edema. […] Thin sections are observed on a Philips CM100. Qualitative observations are made of the cochlear tissue areas above and any other regions determined in the immunohistochemistry section to be responsive to steroid therapy. Stria vascularis is examined for integrity of endothelial cell tight junctions, and intercellular edema, to determine the treatment effects on known changes that occur in autoimmune disease.

[6] = system: MRL/MpJ-Fas^lPr autoimmune mice; conditions: mouse, in vivo
Description: (§5) Serum samples were collected for baseline levels of hematocrit, serum immune complexes, and antinuclear antibodies, all hallmarks of systemic autoimmune disease. […] At the end of treatments, ABR audiometry and serum collection were repeated at 2, 3, and 4 months of treatment to determine steroid effects on cochlear function and systemic autoimmunity.
(§6) Oral delivery in mice provides a constant source of steroid, parallels oral administration in humans, and avoids the trauma of daily injections.
(§7) Mice receiving aldosterone were administered a daily oral dose of 3, 5, 15, or 30 μLg/kg/day of d-aldosterone (Sigma, St. Louis Mo.). Aldosterone drinking water was prepared by dissolving 50 μg of steroid in 50 μl of 100% ETOH, then diluting the required amount in the 500 ml of water in the drinking bottle to reach the final effective dose. The highest final ETOH concentration in a waterbottle was 0.018% (90 μl dose) and was considered negligible.
(§8) Mice receiving fludrocortisone were administered a daily oral dose of 3 μg/kg per day or 10 μg/kg per day. Fludrocortisone drinking water was prepared by dissolving 50 μg of fludrocortisone, 50 μl of 100% ETOH, then diluting the required amount in the 500 ml of water in the drinking bottle to reach the final effective dose. The final ETOH concentration in a water bottle was considered negligible.
(§9) The shift in thresholds between baseline and posttreatment times was analyzed for each ear with a paired t-test. […] A probability value less than 0.05 was considered significant in all tests. […] In addition, by summing the shifts at each frequency, any random fluctuations in thresholds at the different frequencies due to equipment or animal variation are mathematically removed.

[7] = system: MRL/MpJ-Fas^lPr autoimmune mice; test: Stria blood vessel size (quantitative morphology, plastic embedding); assay type: in vivo, mouse; conditions: Chi-squared of vessels above and below normal median
Description: To increase histological detail in order to quantitatively measure steroid responsive hearing loss (stria blood vessel sizes), plastic embedding methods were used as described herein. Age-matched BALB/c controls also were processed to provide details of non-autoimmune stria. Camera lucida drawings were made of the stria, its blood vessels, and the edematous spaces. Digitized measurements were made of these various features.

[8] = system: MRL/MpJ-Fas^lPr autoimmune mice; test: Serum immune complexes as index of systemic autoimmune disease; assay type: in vivo, mouse; conditions: for effect on serum immune complexes: pre- vs posttreatment
Description: as §1
(§4) It may not be possible to perform an extensive statistical analysis on serum measures if there are high mortality rates, if the differential mortality rates between groups lead to large differences in sample sizes, and an inability to get sufficient blood from some mice. In this case, pretreatment-posttreatment statistical comparisons (paired t-tests) are conducted only for those mice that survive the treatment period.

[9] = system: MRL/MpJ-Fas^lPr autoimmune mice; test: Auditory brainstem response (ABR) audiometry after oral steroid treatment; assay type: in vivo, mouse; conditions: for % of ears that are same (unchanged) / % of ears that are worse / % of ears that are better: two months following treatment, dose not stated; for % of ears that are same (unchanged): combined ABR thresholds +/-15 dB; for % of ears that are worse: combined ABR thresholds higher by 20 dB or more; for % of ears that are better: combined ABR thresholds lower by 20 dB or more
Description: The MRL/MpJ-Fas^lPr autoimmune mouse is an established model of autoimmune sensorineural hearing loss (Ruckenstein et al., Acta OtolaryngoL 113:160-5, 1993; Trune et al. Hear. Res. 105:57-64, 1997). These mice carry a Fas gene defect that prevents apoptosis of self-recognizing T lymphocytes, leading to T cell proliferation and polyclonal B cell activation (Watanabe-Fukunaga et al. Nature 356:314-7, 1992). Spontaneous systemic autoimmune disease develops in MRL/MpJ-Fas^lPr autoimmune mice, resulting in increased serum immune complexes, anti-DNA antibodies, lymphadenopathy, elevated auditory thresholds, lowered hematocrits due to anti-erythrocyte autoantibodies, splenomegaly, increased body mass and pathological changes in the stria vascularis (Id. and Ruckenstein et al. Otolaryngol. Head Neck Surg. 121:452-6, 1999; Trune et al. Hear. Res. 155:9-20, 2001).
Mice (Jackson Laboratories, Bar Harbor, Me.) were obtained at two months of age. Onset of systemic autoimmune disease occurs at 3-4 months of age and cochlear thresholds rise shortly thereafter (Trune et al., Otolaryngol. Head Neck Surg. 117:504-8, 1997). Mice were tested with auditory brainstem response (ABR) audiometry (see Example 2) at 2-3 months of age to establish pretreatment baseline auditory thresholds.
as §2, §3

[10] = system: MRL/MpJ-Fas^lPr autoimmune mice; test: Blood hematocrit as index of systemic autoimmune disease; assay type: in vivo, mouse; conditions: for change in hematocrit: pre- vs posttreatment, any dose
Description: as §1, §4

[11] = system: MRL/MpJ-Fas^lPr autoimmune mice; conditions: Trune et al., Laryngoscope 2000; cited from earlier work
[12] = system: MRL/MpJ-Fas^lPr autoimmune mice; test: Survival and tolerance of steroid drinking water; conditions: for tolerance of steroid in the drinking water: dehydration, avoidance of drinking
Description: as §5, §6, §7, §8, §9

[13] = system: MRL/MpJ-Fas^lPr autoimmune mice; conditions: spironolactone study
Procedure: (§10) The spironolactone treatment group was given daily oral doses (5 mg/kg per day) of spironolactone (Sigma, St. Louis, Mo.). Spironolactone drinking water was prepared by dissolving 15 mg of spironolactone in 0.6-0.8 ml of 100% ethyl alcohol (ETOH) and diluting it into a 500 ml drinking-water bottle. Mice drink 3-5 ml of water daily, so the effective dose was approximately 0.15 mg per day. The final ETOH concentration was approximately 0.1% and considered negligible. The dose of spironolactone administered (5 mg/kg per day) was equivalent to the dose used clinically for the treatment of primary hyperaldosteronism and was likely insufficient to completely block the mineralocorticoid receptor.

[14] = system: MRL/MpJ-Fas^lPr autoimmune mice
Procedure: as §10
The spironolactone+aldosterone treatment group was given 15 μg/kg per day of aldosterone in addition to the 5 mg/kg/day of spironolactone. Aldosterone drinking water was prepared by dissolving 50 μg of aldosterone in 50 μl of 100% ETOH and diluting it in the same 500 ml drinking-water bottle as the spironolactone. The final effective dose of aldosterone was approximately 0.5 μg per day. The final ETOH concentration of aldosterone was less than 0.009%. […]
ABR thresholds were recorded before and during treatment (2, 3, and 4 months) to measure the effect of steroids on hearing decline as described above in Example 2.
Ears also were analyzed independently across all frequencies. […]

[15] = Aldosterone 10 μg/kg/day, 2 months of treatment

Compound: C[C@]12CCC(=O)C=C1CC[C@@H]1[C@@H]2[C@@H](O)C[C@]2(C=O)[C@@H](C(=O)CO)CC[C@@H]12 [Aldosterone, d-aldosterone]
- impact on continuing elevation of ANA levels [1]: did not have a significant impact
- average spleen weight [2]: 399 mg
- # Better (ears) [3, 15]: 0
- # Worse (ears) [3, 15]: 13
- # no change (ears) [3, 15]: 1
- (%) Worse (ears) [3, 15]: (93%)
- (%) no change (ears) [3, 15]: 7%
- prevention of hearing loss / decrease of rate of hearing loss ([3]; prednisolone alone at 1 mg/kg/day, aldosterone alone at 3 μg/kg/day): not prevented
- Alive at 2 months of Tx (mice) ([4]; Aldosterone 10 μg/kg/day): 7
- % alive ([4]; Aldosterone 10 μg/kg/day): 87.5%
- stria vascularis appearance [5]: restored the stria to almost normal appearance
- stria appearance ([5]; aldosterone 15 and 30 μg treatment groups): virtually normal in appearance
- stria epithelia appearance ([5]; lowest aldosterone dose): some edema and large vessels
- tolerance of steroid in the drinking water [6]: no adverse affects
- stria blood vessel size relative to normal BALB/c median (35.3 μm^2) [7]: the same size as normal mice
- posttreatment serum immune complex levels ([8]; higher dose aldosterone, four surviving mice): 53,000 μg/ml
- serum immune complex levels in individual mice ([8]; higher dose aldosterone, two of the four surviving mice): 157,000 μg/ml and 45,000 μg/ml
- effect on serum immune complexes [8]: did not show any significant depression
- overall ABR threshold changes vs pretreatment baselines ([9]; two month treatment period): prevent significant overall threshold changes
- % of ears that are same (unchanged) [9]: 27%
- % of ears that are worse [9]: 69%
- % of ears that are better [9]: 4%
- thresholds / cochlear function relative to water controls ([9]; two months of treatment, Chi-squared): significantly better thresholds than controls
- change in hematocrit [10]: did not cause any significant change
- reversing or stabilizing autoimmune related hearing loss [11]: just as effective as prednisolone

Compound: C[C@]12CCC(=O)C=C1CC[C@H]1[C@@H]3CC[C@](O)(C(=O)CO)[C@@]3(C)C[C@H](O)[C@@]12F [Fludrocortisone]
- tolerance of steroid in the drinking water [12]: similarly tolerate
- % of ears that are same (unchanged) [9]: 55% and 54.5%
- % of ears that are worse [9]: 34%
- % of ears that are better [9]: 12% and 11.5%

Compound: CC(=O)S[C@@H]1CC2=CC(=O)CC[C@]2(C)[C@H]2CC[C@@]3(C)[C@@H](CC[C@@]34CCC(=O)O4)[C@H]12 [Spironolactone]
- systemic immune disease (immune complexes, hematocrits, body weights) [13]: normal progression of systemic disease
- hearing patterns compared to water controls ([14]; four months of treatment): no difference from controls
- hearing thresholds compared to water controls ([14]; three months of treatment): no different from untreated mice

Compound: prednisolone sodium phosphate
- impact on continuing elevation of ANA levels [1]: did not have a significant impact
- average spleen weight [2]: 45 mg
- Alive at 2 months of Tx (mice) ([4]; Prednisolone 3 mg/kg/day): 3
- % alive ([4]; Prednisolone 3 mg/kg/day): 42.9%
- stria vascularis appearance [5]: proper epithelium thickness, although dilated vessels still were seen
- systemic immune disease (immune complexes, hematocrits, body weights) [13]: all of the normal immune suppression effects
- tolerance of steroid in the drinking water [12]: no adverse affects
- survival ([12]; end of two months of treatment): 60-65%
- serum immune complex levels after treatment ([8]; higher prednisolone dose, dropped from 3,920 μg/ml): approximately 450 μg/ml
- effect on serum immune complexes [8]: lowered serum immune complexes in a dose dependent manner
- serum immune complexes after treatment ([8]; prednisolone 5 mg dose, reduced from 4,570 μg/ml): 1,092 μg/ml
- hematocrits ([10]; higher dose prednisolone): elevated hematocrits beyond the normal range
- average hematocrits ([10]; lower prednisolone dose): in the normal range
- change in hematocrit [10]: elevated hematocrits
